Data as given in patent publication US20240279218A1 (Hoffmann-La Roche Inc., priority 2016, published 2024).

Columns and labels:
h-GABA-A α5β3γ2 [1] = target: T1, h-GABA-A α5β3γ2 (Homo sapiens (Human), UniProt P18507+P31644); assay: [3H]flumazenil competition binding assay, membranes of HEK293 cells expressing human GABAA receptors; conditions: displacement of [3H]flumazenil 0.5 nM, HEK293 cells expressing human receptors, mean of two determinations; read-out: Ki h-GABA-A α5β3γ2
In short: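 Membranes were prepared from HEK293 cells with transient human α5β3γ2 expression and assayed in Krebs-tris, pH 7.5. Bound radioactivity measured on filters by liquid scintillation.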

h-GABA-A α5β3γ2 [2] = target: T1, h-GABA-A α5β3γ2; assay: Two-electrode voltage clamp electrophysiology in Xenopus oocytes expressing GABAA receptors, modulation of GABA EC20 current; assay type: cell-based; conditions: Xenopus oocytes; for Efficacy (GABA) %: % modulation of GABA EC20 = 100*(Fold increase−1); for Fold increase h-GABA-A α5β3γ2 oocyte: GABA EC20, test compound at approx. 30 fold its Ki
In short: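 Values are % modulation of an EC20 GABA response, derived point by point from the ratio of compound-exposed versus control current traces (extremum taken, 100×(fold−1)). Recordings used oocytes injected with human α5, β3, γ2 mRNA, clamped at −80 mV at room temperature, at least 3 oocytes each.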

SMILES	Ki (h-GABA-A α5β3γ2 [1]) [nM]	Efficacy (GABA) % (h-GABA-A α5β3γ2 [2]) [%]	Fold increase h-GABA-A α5β3γ2 oocyte (h-GABA-A α5β3γ2 [2])
Cc1ccc(-c2noc(C)c2COc2ccc(C(=O)N[C@H]3CCCC(F)(F)[C@@H]3O)cn2)cn1 [Example 133, N-((1S,2R)-3,3-difluoro-2-hydroxycyclohexyl)-6-((5-methyl-3-(6-methylpyridin-3-yl)isoxazol-4-yl)methoxy)pyridine-3-carboxamide]	43.1	95	1.95
Cc1ccc(-c2noc(C)c2COc2ccc(C(=O)N[C@@H]3CCOC[C@H]3O)cn2)cn1 [Example 134, N-((3S,4R)-3-hydroxytetrahydro-2H-pyran-4-yl)-6-((5-methyl-3-(6-methylpyridin-3-yl)isoxazol-4-yl)methoxy)pyridine-3-carboxamide]	20.8	66	1.66
Cc1ccc(-c2noc(C)c2COc2ccc(C(=O)N[C@H]3CCCC[C@@H]3O)cn2)cn1 [Example 135, N-((1S,2S)-2-hydroxycyclohexyl)-6-((5-methyl-3-(6-methylpyridin-3-yl)isoxazol-4-yl)methoxy)pyridine-3-carboxamide]	30.4	92	1.92
CNC(=O)c1ccc(OCc2c(-c3ccc(C)nc3)noc2C)nc1F [Example 136, 2-fluoro-N-methyl-6-((5-methyl-3-(6-methylpyridin-3-yl)isoxazol-4-yl)methoxy)pyridine-3-carboxamide]	14.8	54	1.54
COc1ccc(-c2noc(C)c2COc2ccc(C(=O)NC3CCOCC3)cn2)cn1 [Example 137, 6-((3-(6-methoxypyridin-3-yl)-5-methylisoxazol-4-yl)methoxy)-N-tetrahydropyran-4-yl-pyridine-3-carboxamide]	25.4	55	1.55
COc1ccc(-c2noc(C)c2COc2ccc(C(=O)NC(C)C)cn2)cn1 [Example 138, N-isopropyl-6-((3-(6-methoxypyridin-3-yl)-5-methylisoxazol-4-yl)methoxy)pyridine-3-carboxamide]	93.8	46	1.46
CCC[C@@H](CO)NC(=O)c1ccc(OCc2c(-c3ccc(OC)nc3)noc2C)nc1 [Example 139, (S)—N-(1-hydroxypentan-2-yl)-6-((3-(6-methoxypyridin-3-yl)-5-methylisoxazol-4-yl)methoxy)pyridine-3-carboxamide]	19.4	152	2.52
COc1ccc(-c2noc(C)c2COc2ccc(C(=O)N3CCS(=O)(=O)CC3)cn2)cn1 [Example 140, (1,1-dioxidothiomorpholino)(6-((3-(6-methoxypyridin-3-yl)-5-methylisoxazol-4-yl)methoxy)pyridin-3-yl)methanone]	56	13	1.13
CCC[C@@H](CO)NC(=O)c1ccc(OCc2c(-c3ccc(N(C)C)nc3)noc2C)nc1 [Example 141, (S)-6-((3-(6-(dimethylamino)pyridin-3-yl)-5-methylisoxazol-4-yl)methoxy)-N-(1-hydroxypentan-2-yl)nicotinamide]	49.5	243	3.43
COc1cc(OCc2c(-c3ccc(C)nc3)noc2C)ncc1C(=O)NC1CCOCC1 [Example 142, 4-methoxy-6-((5-methyl-3-(6-methylpyridin-3-yl)isoxazol-4-yl)methoxy)-N-(tetrahydropyran-4-yl)nicotinamide]	4.7	44	1.44
